Read-outs that look alike come from different tables or passages of the source.
Legend:
[1] = test system: Plasmodium falciparum Dd2 asexual blood stage parasites; experiment: microbe, parasite or virus in culture; set-up: species or system Plasmodium falciparum Dd2 in human erythrocytes; single determination (one 11-point concentration-response curve); conditions: Plasmodium falciparum, DD2, Erythrocyte, 72 h; read-out: AC50
in vitro [2] = conditions: human, hepg2 cells
[3] = test system: P. berghei-ANKA-GFP-LucCON liver stage parasites in HepG2-A16-CD81EGFP cells; experiment: P. berghei liver stage Pb-Luc assay, Method 1 (UCSD, 1536-well); assay type: cell-based, Plasmodium berghei; conditions: P. berghei liver stage, averaged response (percent); for Average P. berghei 1 µM response (%): the header list (r8) defines it as the 1 µM dose
in vitro [4] = conditions: human, hepg2-a16-cd81egfp cells
[5] = test system: P. falciparum Dd2 (clone B2) asexual blood stage parasites; experiment: P. falciparum Dd2 asexual blood stage SYBR Green-I 72 h proliferation assay (qHTS); assay type: cell-based, Plasmodium falciparum; conditions: log10 of AC50 in M; for Pf ABS Log AC50 (M): averaged P. falciparum asexual blood stage potency
HepG2-A16-CD81EGFP cells = conditions: averaged response (percent)
[6] = test system: luciferase-expressing P. berghei liver stage parasites in HepG2 cells; experiment: Inhibition of liver-stage development assay (ILSDA), Method 2 (WRAIR, 96-well); assay type: cell-based, Plasmodium berghei; conditions: Method 2, dose response; for AC50: Plasmodium berghei, HepG2, P. berghei liver stage
[7] = HepG2, the header list (r10) describes it as the 1 µM dose

| SMILES | CC50 at 48 h (in vitro [2]) | Average P. berghei 3 µM response( %) [3] | Average P. berghei 1 µM response (%) [3] | viability at 3 µM (in vitro [4]; % viability) | Pf ABS Log AC50 (M) [5] | Average HepG2 3 µM response( %) (HepG2-A16-CD81EGFP cells; HepG2, 3 µM dose) | Average HepG2 3 µM response( %) (HepG2-A16-CD81EGFP cells; [7]) | also measured |
| --- | --- | --- | --- | --- | --- | --- | --- | --- |
| Cc1cc(N2CCC(N(C)C3CCCC3)CC2)nc2cc(O)ccc12 [MLS000118330-01] | > 57 µM | – | – | – | – | – | – | AC50 [1]: 5.96 µM |
| COCCNc1ncccc1-c1noc([C@@H]2CCCN2Cc2ccccn2)n1 [NCGC00394837-01] | > 57 µM | – | – | – | – | – | – | AC50 [1]: 7.69 µM |
| Cc1nn2c(c1-c1ccccc1OCc1ccccc1)N(Cc1ccccc1)CCC2 [NCGC00420471-01] | > 57 µM | – | – | – | – | – | – | AC50 [1]: 15.3 µM |
| O=C(Nc1ccc(Cl)cc1)c1nc2c(o1)CCN(Cc1ccc(F)cc1F)CC2 [NCGC00413332-01] | > 57 µM | – | – | – | – | – | – | – |
| Cc1csc(Nc2ccc3c(n2)CN(Cc2ccccc2C)C(=O)CO3)n1 [NCGC00413860-01] | > 57 µM | – | – | – | – | – | – | AC50 [1]: 19.3 µM |
| Cc1nn2c(c1-c1ccccc1Oc1ccccc1)N(Cc1cccc(O)c1)CCC2 [NCGC00420295-01] | > 57 µM | – | – | – | – | – | – | AC50 [1]: 10.9 µM |
| COc1ccc(-c2cc3nc4c(c(=O)n3[nH]2)CN(C(=O)c2ccc(Cc3c(C)noc3C)o2)CC4)cc1 [NCGC00440331-01] | 0.685 µM | – | – | – | – | – | – | – |
| O=C(c1ccc(-c2ncc3cnc(-c4cccc(F)c4)cn23)cc1)N1CCc2cccnc21 [NCGC00414026-01] | > 57 µM | – | – | – | – | – | – | – |
| COCC(=O)N[C@H]1C[C@@H](Cc2cc(-c3ccc(OC)cc3)on2)C1(C)C [NCGC00395450-01] | > 57 µM | – | – | – | – | – | – | – |
| Cc1nn2c(c1-c1ccccc1C(C)C)N(CCC(C)C)CCC2 [NCGC00420439-01] | > 57 µM | – | – | – | – | – | – | AC50 [1]: 2.17 µM |
| CCN1CCN(c2cc(C)c3cc(NC(=O)c4cccc(Cl)c4)ccc3n2)CC1 [NCGC00103820-01] | > 57 µM | – | – | – | – | – | – | AC50 [1]: 4.73 µM |
| Cc1ccc(C)c(-n2c(-c3ccc(Br)cc3)csc2=NC(=O)c2ccccc2F)c1 [MLS000766129] | – | 44% | 91% | 89.1% | -5.187 M | 89% | 97% | – |
| CCSc1nc2sc3c(c2c(=O)n1-c1ccccc1)CCN(C(C)C)C3 [MLS001173590] | – | 63% | 91% | 92.6% | -6.000 M | 93% | 100% | – |
| CC(C)N(Cc1ccccc1)C(=O)CN1C(=O)COc2ccc([S+](=O)([O-])N3CCCCCC3)cc21 [NCGC00123222] | – | 127% | 105% | 93.6% | -6.100 M | 94% | 99% | – |
| Cc1nn(-c2ccccc2)c(C)c1/C=N/Nc1nc2ccccc2[nH]1 [MLS000332160] | – | 43% | 83% | 87.3% | -6.012 M | 87% | 92% | – |
| CN(C)c1ccc2ncc(Nc3ccc(Oc4ccccc4)cc3)n2n1 [NCGC00412534-01] | > 57 µM | – | – | – | – | – | – | AC50 [1]: 8.63 µM |
| Cc1nn2c(c1-c1ccccc1[S+](C)(=O)[O-])N(Cc1ccc(C(=O)O)s1)CCC2 [NCGC00420344-01] | > 57 µM | – | – | – | – | – | – | AC50 [1]: 7.69 µM |
| C/C(=N\Nc1ncnc2sc(C)c(C)c12)c1ccccn1 [MLS001176565] | – | 5.49% | 9% | 40.2% | -5.912 M | 40% | 52% | – |
| O=C(Nc1ncccc1O)c1ccc(NS(=O)(=O)c2ccc3[nH]c(=O)[nH]c3c2)cc1 [MLS001138628] | – | 23% | 59% | 91% | -6.437 M | 91% | 105% | – |

| SMILES | CC50 at 48 h (in vitro [2]) | Average P. berghei 3 µM response( %) [3] | Average P. berghei 1 µM response (%) [3] | viability at 3 µM (in vitro [4]; % viability) | Pf ABS Log AC50 (M) [5] | Average HepG2 3 µM response( %) (HepG2-A16-CD81EGFP cells; HepG2, 3 µM dose) | Average HepG2 3 µM response( %) (HepG2-A16-CD81EGFP cells; [7]) | also measured |
| --- | --- | --- | --- | --- | --- | --- | --- | --- |
| Cc1cc(N2CCN(C3CCCC3)CC2)n2c(nc3ccccc32)c1C#N [MLS000039270] | – | 94% | 106% | 89.8% | -6.262 M | 90% | 89% | – |
| C=C(C)CSc1nc2sc3c(c2c(=O)n1-c1ccc(C)cc1)CCN(C)C3 [MLS001173676] | – | 59% | 87% | 86.9% | -5.800 M | 87% | 97% | – |
| O=c1[nH]c(N2CCOCC2)nc2c1CCN(Cc1ccc(Cl)cc1F)CC2 [NCGC00440653] | – | 41% | 39% | – | – | 102% | 102% | Activity direction (Decrease / Inactive) ([6]; P. berghei liver stage): Decrease; AC50 ([6]; read-out: AC50): 0.112 µM; AC50 ([6]; read-out: Log AC50 (converted)): 0.112 µM; AC50 ([5]; Plasmodium falciparum, DD2, averaged P. falciparum asexual blood stage potency, read-out: Pf ABS Log AC50 (converted)): 3.35 µM |
| O=c1c2nc(-c3cccc(O)c3)ccc2ncn1C1CC1 [NCGC00414734-01] | > 57 µM | – | – | – | – | – | – | – |
| N=c1n(CCN2CCCCC2)c2ccccc2n1CC(=O)c1ccc(Cl)c(Cl)c1 [MLS001042209] | – | 89% | 92% | 87.4% | -5.750 M | 87% | 89% | – |
| COc1ccc(CN2C[C@@H](F)[C@@H](OCc3nc4cc(C)ccc4[nH]3)C2)cc1 [NCGC00393009-01] | > 57 µM | – | – | – | – | – | – | – |
| Cc1cc(O)c(CN2CCN(c3ccccc3)CC2)cc1C [MLS000569270] | – | 97% | 88% | – | -5.650 M | 107% | 102% | viability at 3 µM (in vitro [4]): 107% |
| COc1ccc(NC(=O)CN(C)C(=O)c2ccc(-c3ccccc3Cl)o2)cc1 [MLS001078689] | – | 111% | 109% | 105% | -5.750 M | 105% | 99% | – |
| Cc1cc(Nc2nc3ccccc3nc2Cl)n(-c2ccccc2C)n1 [MLS000595322] | – | 93% | 114% | 98.3% | -6.062 M | 98% | 93% | – |
| Nc1nonc1-n1nnc(C(=O)N/N=C/c2ccc(F)cc2)c1-c1ccc2c(c1)OCO2 [MLS001142639] | – | 143% | 115% | 95.3% | -6.637 M | 95% | 92% | – |
| Cc1cc(C)n(-c2nnc(N3CCN(c4ccccc4)CC3)nn2)n1 [MLS000695202] | – | 84% | 102% | 93.9% | -6.012 M | 94% | 97% | – |
| CCCCc1c(C)c(C#N)c2nc3ccccc3n2c1Nc1c(C)n(C)n(-c2ccccc2)c1=O [MLS000555448] | – | 121% | 128% | 90.2% | -5.662 M | 90% | 93% | – |
| Cc1noc(C)c1-c1cc2c(cc(-c3ccccc3)n2C)c(-c2ccnn2C)n1 [NCGC00417162-01] | > 57 µM | – | – | – | – | – | – | AC50 [1]: 8.63 µM |
| COc1ccc(-[n+]2c(-c3ccc(Br)cc3)cn3c2CCc2ccccc2-3)cc1.[Br-] [MLS000391920] | – | 11% | 57% | 65.4% | -5.612 M | 65% | 95% | – |
| Cc1ccc(NC2=C(N3CCCCC3)C(=O)c3ccccc3C2=O)cc1 [MLS000532222] | – | 14% | 71% | 76.9% | -6.600 M | 77% | 99% | – |
| Cc1nn2c(c1-c1ccccc1-c1ccccc1)N(Cc1cccc(O)c1)CCC2 [NCGC00420293-01] | > 57 µM | – | – | – | – | – | – | AC50 [1]: 4.85 µM |
| O=C1C(Nc2ccccc2)=C/C(=N\S(=O)(=O)c2cccs2)c2ccccc21 [MLS000374486] | – | 34% | 65% | 86% | -6.462 M | 86% | 101% | – |
| Cc1cccc(-c2cc3nc(C)c(C)c(NCCCn4ccnc4)n3n2)c1 [MLS000529525] | – | 119% | 131% | 87.2% | -5.512 M | 87% | 97% | – |

— paper PMC7822874, “Chemoprotective antimalarials identified through quantitative high-throughput screening of Plasmodium blood and liver stage parasites” (Scientific Reports, 2021)
